# Measurements: ChEMBL document CHEMBL3132769, “Fragment growing to retain or alter the selectivity of anchored kinase hinge-binding fragments” (Medchemcomm, 2014)
# What was measured:
# [1] = tested on: Tyrosine-protein kinase ABL1 (Homo sapiens), P00519 [T315I]; conditions: 0.1 uM
# [2] = target: T1, Serine/threonine-protein kinase D3 (Homo sapiens) (UniProt O94806); assay: Inhibition of human full length PKD3 expressed in baculovirus assessed as substrate phosphorylation using fluorescence-labelled peptides as substrate at 95 uM after 90 mins by microfluidic peptide phosphorylation assay
# T1 sequence (whole entry): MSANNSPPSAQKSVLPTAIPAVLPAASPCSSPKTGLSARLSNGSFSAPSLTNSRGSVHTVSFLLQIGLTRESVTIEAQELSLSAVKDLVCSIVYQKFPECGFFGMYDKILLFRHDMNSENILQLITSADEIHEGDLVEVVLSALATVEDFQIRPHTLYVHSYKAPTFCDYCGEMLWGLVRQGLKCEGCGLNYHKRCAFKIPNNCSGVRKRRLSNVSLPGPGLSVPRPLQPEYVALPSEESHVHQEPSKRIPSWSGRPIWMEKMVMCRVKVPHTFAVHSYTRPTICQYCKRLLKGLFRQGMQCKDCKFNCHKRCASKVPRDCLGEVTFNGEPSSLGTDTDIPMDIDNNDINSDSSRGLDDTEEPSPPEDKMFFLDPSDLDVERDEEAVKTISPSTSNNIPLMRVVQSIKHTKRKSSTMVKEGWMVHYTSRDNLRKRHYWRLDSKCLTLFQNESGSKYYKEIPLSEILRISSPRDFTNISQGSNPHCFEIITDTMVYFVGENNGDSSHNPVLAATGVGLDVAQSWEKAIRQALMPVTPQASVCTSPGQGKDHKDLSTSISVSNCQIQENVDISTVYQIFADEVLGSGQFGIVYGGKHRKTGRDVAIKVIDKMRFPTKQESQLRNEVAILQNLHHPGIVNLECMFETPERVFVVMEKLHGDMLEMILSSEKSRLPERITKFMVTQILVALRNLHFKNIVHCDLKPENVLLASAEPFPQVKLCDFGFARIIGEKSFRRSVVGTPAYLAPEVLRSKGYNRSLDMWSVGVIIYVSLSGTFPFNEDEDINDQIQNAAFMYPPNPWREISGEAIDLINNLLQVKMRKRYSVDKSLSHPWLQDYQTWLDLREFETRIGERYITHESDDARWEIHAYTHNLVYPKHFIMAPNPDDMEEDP
# [3] = target: Tyrosine-protein kinase Fyn (Homo sapiens) (UniProt P06241); assay: Inhibition of human full length FYN expressed in baculovirus assessed as substrate phosphorylation using fluorescence-labelled peptides as substrate at […] after 90 mins by microfluidic peptide phosphorylation assay
# Sequence of Tyrosine-protein kinase Fyn (Homo sapiens) (P06241 2-537 limits assumed): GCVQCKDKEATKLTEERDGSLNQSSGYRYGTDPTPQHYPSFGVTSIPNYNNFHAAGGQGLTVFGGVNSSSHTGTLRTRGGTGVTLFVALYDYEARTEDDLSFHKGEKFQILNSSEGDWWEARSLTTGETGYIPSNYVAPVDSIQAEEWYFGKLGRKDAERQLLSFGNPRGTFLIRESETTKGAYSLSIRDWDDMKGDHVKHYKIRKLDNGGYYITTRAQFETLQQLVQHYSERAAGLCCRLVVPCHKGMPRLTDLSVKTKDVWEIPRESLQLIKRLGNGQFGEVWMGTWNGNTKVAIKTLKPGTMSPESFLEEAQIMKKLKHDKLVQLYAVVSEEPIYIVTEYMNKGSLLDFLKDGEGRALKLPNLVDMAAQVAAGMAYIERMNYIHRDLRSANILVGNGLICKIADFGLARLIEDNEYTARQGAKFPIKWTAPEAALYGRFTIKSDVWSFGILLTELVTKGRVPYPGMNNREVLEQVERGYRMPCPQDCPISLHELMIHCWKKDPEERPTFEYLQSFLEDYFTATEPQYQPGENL
# [4] = target: Mitogen-activated protein kinase kinase kinase kinase 4 (Homo sapiens) (UniProt O95819); assay: Inhibition of human HGK catalytic domain expressed in baculovirus assessed as substrate phosphorylation using fluorescence-labelled peptides as substrate at […] after 90 mins by microfluidic peptide phosphorylation assay
# Sequence of Mitogen-activated protein kinase kinase kinase kinase 4 (Homo sapiens) (O95819 2-1239 limits assumed): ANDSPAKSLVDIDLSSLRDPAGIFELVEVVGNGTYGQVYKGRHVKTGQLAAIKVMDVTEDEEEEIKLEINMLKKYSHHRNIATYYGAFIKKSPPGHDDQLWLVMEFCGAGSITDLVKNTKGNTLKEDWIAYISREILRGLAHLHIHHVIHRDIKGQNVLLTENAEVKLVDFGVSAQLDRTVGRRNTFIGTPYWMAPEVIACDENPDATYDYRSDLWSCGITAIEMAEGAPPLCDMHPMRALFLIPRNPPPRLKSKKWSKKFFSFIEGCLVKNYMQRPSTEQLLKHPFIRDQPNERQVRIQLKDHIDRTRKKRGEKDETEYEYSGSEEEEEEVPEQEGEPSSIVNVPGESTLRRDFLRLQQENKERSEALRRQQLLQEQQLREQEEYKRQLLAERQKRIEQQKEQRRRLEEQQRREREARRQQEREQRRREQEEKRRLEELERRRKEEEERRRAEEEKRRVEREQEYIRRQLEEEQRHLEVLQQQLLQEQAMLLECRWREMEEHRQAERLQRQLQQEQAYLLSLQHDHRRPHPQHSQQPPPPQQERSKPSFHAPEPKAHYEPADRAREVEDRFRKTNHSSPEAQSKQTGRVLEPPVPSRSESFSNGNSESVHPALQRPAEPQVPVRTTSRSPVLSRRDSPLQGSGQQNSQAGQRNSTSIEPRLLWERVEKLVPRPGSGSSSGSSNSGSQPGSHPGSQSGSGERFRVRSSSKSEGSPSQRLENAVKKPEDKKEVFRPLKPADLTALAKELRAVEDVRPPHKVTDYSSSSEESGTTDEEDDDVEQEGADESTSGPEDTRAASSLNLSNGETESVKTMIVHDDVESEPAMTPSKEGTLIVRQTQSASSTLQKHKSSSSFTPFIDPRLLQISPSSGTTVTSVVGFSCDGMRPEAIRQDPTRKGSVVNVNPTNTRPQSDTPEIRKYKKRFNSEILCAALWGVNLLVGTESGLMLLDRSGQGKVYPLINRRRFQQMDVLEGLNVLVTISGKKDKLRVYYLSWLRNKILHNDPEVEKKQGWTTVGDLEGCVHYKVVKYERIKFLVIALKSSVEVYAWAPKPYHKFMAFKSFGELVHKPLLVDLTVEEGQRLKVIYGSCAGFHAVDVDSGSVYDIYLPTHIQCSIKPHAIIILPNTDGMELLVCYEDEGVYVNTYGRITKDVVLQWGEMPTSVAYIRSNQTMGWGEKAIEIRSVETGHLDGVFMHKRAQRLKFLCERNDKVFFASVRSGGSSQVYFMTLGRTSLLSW
# [5] = target: T2, Serine/threonine-protein kinase Sgk1 (Homo sapiens) (UniProt O00141); assay: Inhibition of human truncated SGK1 expressed in baculovirus assessed as substrate phosphorylation using fluorescence-labelled peptides as substrate at 0.06 uM after 90 mins by microfluidic peptide phosphorylation assay
# T2 sequence (whole entry): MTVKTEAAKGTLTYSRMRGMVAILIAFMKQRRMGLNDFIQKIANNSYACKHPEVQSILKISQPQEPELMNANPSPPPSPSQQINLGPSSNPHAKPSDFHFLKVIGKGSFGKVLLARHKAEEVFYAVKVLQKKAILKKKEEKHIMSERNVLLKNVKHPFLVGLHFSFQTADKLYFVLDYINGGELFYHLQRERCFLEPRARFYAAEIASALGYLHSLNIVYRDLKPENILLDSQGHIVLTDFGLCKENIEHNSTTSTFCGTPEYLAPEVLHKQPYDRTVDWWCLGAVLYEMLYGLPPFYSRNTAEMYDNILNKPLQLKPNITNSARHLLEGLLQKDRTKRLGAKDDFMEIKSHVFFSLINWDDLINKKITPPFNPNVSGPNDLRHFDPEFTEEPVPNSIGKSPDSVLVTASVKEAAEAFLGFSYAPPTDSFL
# [6] = target: T3, Calcium/calmodulin-dependent protein kinase type IV (Homo sapiens) (UniProt Q16566); assay: Inhibition of human full length CAMK4 expressed in baculovirus assessed as substrate phosphorylation using fluorescence-labelled peptides as substrate at 1000 uM after 90 mins by microfluidic peptide phosphorylation assay
# T3 sequence (whole entry): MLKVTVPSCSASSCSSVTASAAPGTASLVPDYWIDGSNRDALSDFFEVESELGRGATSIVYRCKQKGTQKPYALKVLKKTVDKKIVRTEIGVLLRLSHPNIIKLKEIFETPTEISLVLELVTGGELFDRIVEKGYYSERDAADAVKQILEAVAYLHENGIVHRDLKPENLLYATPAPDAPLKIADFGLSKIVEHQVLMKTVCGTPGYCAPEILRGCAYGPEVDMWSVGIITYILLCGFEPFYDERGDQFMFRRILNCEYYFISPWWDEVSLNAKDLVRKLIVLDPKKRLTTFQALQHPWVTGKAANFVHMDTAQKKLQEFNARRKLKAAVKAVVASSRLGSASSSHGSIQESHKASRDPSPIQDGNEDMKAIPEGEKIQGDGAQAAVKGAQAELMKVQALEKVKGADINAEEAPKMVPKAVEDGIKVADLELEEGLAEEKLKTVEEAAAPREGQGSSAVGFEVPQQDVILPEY
# [7] = target: T2, Serine/threonine-protein kinase Sgk1 (Homo sapiens); assay: Inhibition of human truncated SGK1 expressed in baculovirus assessed as substrate phosphorylation using fluorescence-labelled peptides as substrate at 1000 uM after 90 mins by microfluidic peptide phosphorylation assay
smiles,measurement,setting,value
C[C@H](CN(C)C)Oc1nc(Nc2cc3cccc(Cl)c3cn2)cnc1C#N,inhibition,[1],0%
NCCc1ccc(-c2ncnc3[nH]cnc23)cc1,inhibition,[2],61.5%
COC(=O)c1cnc(Nc2cnc(C#N)cn2)cc1NCC1CCNCC1,inhibition,[3],2%
same,inhibition,[4],3%
NC1(Cc2ccc(Cl)cc2)CCN(c2ncnc3[nH]ccc23)CC1,inhibition,[5],56%
c1cnc2[nH]ccc2c1,inhibition,[6],52%
same,inhibition,[7],94%
